Results on seven compounds are retold here after paper PMC10222323, “Novel Biotinylated Cu(II)-Phenanthroline Complexes: 2D and 3D Cytotoxic Activity and Mechanistic Insight” (Molecules, 2023).

Broadly, the IC50 is the concentration at which inhibition is half-maximal.

Data set [1] relates to PSN-1 (pancreatic) cancer cells. The experiment in a line: MTT cytotoxicity test, 72 h, PSN-1. It counts as cell-based, human. On the procedure:
(§1) The in vitro anticancer potential of the newly developed complexes and of the ligands has been tested on six different cancer cell lines including PSN-1 (pancreatic), HCT-15 (colorectal with low sensitivity for cisplatin), 2008 (ovarian), A431 (cervical), MDA-MB-231 (breast), and U1285 (lung) cancer cells. For comparison purposes, cisplatin efficacy was assessed under the same experimental conditions.
(§2) Tested compounds were dissolved in DMSO and added to the cell-growth medium to a final solvent concentration of 0.5%, which is well reported to not have cytotoxic effects on cell viability. Cisplatin (Sigma Chemical Co., St. Louis, MO, USA) was dissolved in a physiologic solution (0.9% sodium chloride).
(§3) Human colon (HCT-15), pancreatic (PSN-1), and breast (MDA-MB-231) carcinoma-cell lines were obtained from the American Type Culture Collection (ATCC, Rockville, MD). Human cervical carcinoma (A431) cells were kindly provided by Prof. F. Zunino (Division of Experimental Oncology B, Istituto Nazionale dei Tumori, Milan). Human ovarian carcinoma (2008) cells and their cisplatin-resistant counterpart (C13*) were kindly provided by Prof. G. Marverti (Dipartimento di Scienze Biomediche, Università di Modena University, Italy). Cell lines were cultured in RPMI-1640 or DMEM medium (Euroclone) added with 10% fetal calf serum (Euroclone, Milan, Italy), antibiotics (50 units per mL penicillin, and 50 μg mL^−1 streptomycin), and 2 mM L-glutamine.
(§4) The growth inhibitory effect toward the tumour cell lines was evaluated by the MTT test as previously described.

In data set [2] the test system is U1285 (lung) cancer cells. The experiment in a line: MTT cytotoxicity test, 72 h, U1285. It counts as cell-based, human. Particulars: mean ± S.D., read-out: IC50 U-1285. On the procedure:
as §1, §2, §4

Data set [3] has as its system HCT-15 (colorectal with low sensitivity for cisplatin) cancer cells. In words: MTT cytotoxicity test, 72 h, HCT-15. It counts as cell-based, human. On the procedure:
as §1, §2, §3, §4

In data set [4] the test system is six different cancer cell lines. The experiment in a line: MTT cytotoxicity, average over the cancer cell line panel. It counts as cell-based, human. To be noted: for cytotoxic activity of ligands (in words): compared with the complexes. On the procedure:
as §1
Due to note, all the complexes were very effective in the MDA-MB-231 cell line, which overexpress the SMVT (sodium-dependent multivitamin transporter) receptor, which is well known to be involved in the intracellular translocation of biotin [24].
as §4

The test system of data set [5] is MDA-MB-231 (breast) cancer cells. In words: MTT cytotoxicity test, 72 h, MDA-MB-231. It counts as cell-based, human. On the procedure:
as §1, §2, §3, §4
Background: Formazan colour is commonly taken as a measure of viable cells.

Data set [6] deals with 2008 (ovarian) cancer cells. In words: MTT cytotoxicity test, 72 h, 2008. Format: cell-based, human. On the procedure: as §1
(§5) Table 2 reported the IC50 values of the complexes against two types of ovarian cancer cells, one sensitive (2008) and one resistant to cisplatin (C13*). […] The resistance factor (R.F., the ratio among IC50 values obtained in resistant C13*cells and those calculated in the sensitive 2008 ones) calculated for all tested complexes resulted to be ≤2 (R.F. for cisplatin 11.1), strongly confirming the ability of the complexes to bypass cisplatin resistance.
as §2, §3, §4

The test system of data set [7] is A431 (cervical) cancer cells. In words: MTT cytotoxicity test, 72 h, A431. Format: cell-based, human. On the procedure: as §1, §2, §3, §4
For data set [8], the system named is human pancreatic PSN-1 cancer-cell spheroids. In words: 3D spheroid cytotoxicity, APH assay, 72 h. Particulars: 3D spheroids, 72 h, APH test. It counts as cell-based. On the procedure:
The cancer spheroids were treated with tested complexes for 72 h, and the cell viability was estimated by means of a modified acid phosphatase (APH) assay.
Spheroid cultures were performed by seeding 2.5 × 10^3 PSN-1 cancer cells/well in spheroid-suitable tissue culture untreated 96-well plates (Greiner Bio-one, Kremsmünster, Austria) in RPMI-1640 cell culture medium without phenol red (Sigma Chemical Co., St. Louis, MO, USA) containing 10% fetal calf serum and supplemented with 20% methyl cellulose stock solution.
An established APH-modified assay was used to detect the cytotoxicity profile in 3D spheroids, as previously described. IC50 values were calculated using a 4-PL model.

In data set [9] the test system is C13* ovarian cancer cells (cisplatin-resistant). The experiment in a line: MTT cytotoxicity test, 72 h, cisplatin-resistant C13*. Format: cell-based, human. To be noted: for R.F. (resistance factor): RF = IC50 resistant (C13*)/IC50 parental cells (2008); for IC50: cisplatin-resistant cells, 72 h, MTT test. On the procedure:
as §5, §2, §3, §4

A further data set has as its system noncancerous CHO cells. In words: Cytotoxicity against noncancerous CHO cells. Format: cell-based. To be noted: for IC50: noncancerous cells; for S.I. (selectivity index): average IC50 toward normal cells divided by the average IC50 for the malignant cells.
Excerpt: In order to preliminarily assess the possible toxic effect on noncancerous cells, we also evaluated the cytotoxic potential of the newly developed Cu(II) complexes against noncancerous CHO cells (Table 3). For all tested complexes, calculated IC50 values were higher than those obtained (on average) against tumour cells, thus indicating for this class of metal complexes a slightly preferential cytotoxicity against cancer cells, as attested by the calculated selectivity index values (SI = the quotient of the average IC50 toward normal cells divided by the average IC50 for the malignant cells).
as §4

Data set [10] concerns DNA. The experiment in a line: Ethidium bromide displacement assay. It counts as binding. To be noted: EtBr displacement. On the procedure:
A number of research studies were performed on the elucidation of the mechanism of action of copper complexes in the past three decades. Despite several different molecular targets having been proposed for copper(II) complexes, DNA still represents one of the most substantiated when considering diamine ligands. On this basis, we thought it of interest to evaluate the ability of tested complexes to interact with DNA, both at molecular and cellular levels. An ethidium bromide (EB) displacement assay was used to understand if the complexes interact with the DNA at a molecular level. […] These values are very much in line with what was previously seen by us and also very close to the reported literature values of 2.60 × 10^7 M(bp^−1) and 3.04 × 10^7 M(bp^−1) for the bis complexes of [Cu(phen)2]^2+ and [Cu(DPQ)2]^2+ reported by Molphy et al.. […] It is largely possible that the presence of the 1,10-phenanthroline scaffold on compounds 3 and 4 is contributing to the increased displacement of the EtBr (probably by intercalation) and leading to a more noticeable decrease in the fluorescence.
EtBr displacement assays were performed in 10 mM phosphate buffer solution (pH 7.4) as described by Boger et al. The binding values were calculated using the % relative decrease of fluorescence at 50% and the equation below. (1) EEBEtBr/compound50%FI

For data set [11], the system named is DNA. Also noted: method as in earlier work. To be noted: reported literature values; ref 26 (Molphy et al.); cited from earlier work.
Another data set relates to MDA-MB-231 cells. Particulars: 24 h, 2 and 3 μM. On the procedure: The ability to enter cancer cells is a very important factor to determine the biological activity of metal-based compounds. Consequently, with the aim of correlating the antiproliferative activity elicited by all the newly developed complexes and their accumulation profiles into cancer cells, the Cu content was evaluated in the SMVT overexpressing MDA-MB-231 cells. Uptake profiles were determined by treating cancer cells for 24 h with two concentrations (2 and 3 μM) of tested complexes.
MDA-MB-231 cells (2.5 × 10^6) were seeded in 75 cm^2 flasks in a growth medium (20 mL). Following 24 h, cells were treated for 24 h with tested complexes and samples processed as previously described.
Figure 2 Cellular uptake of complexes 1–4 in drug-treated MDA-MB-231 human breast cancer cells. Cells were incubated for 24 h with […] of tested complexes. The amount of cellular Cu was estimated by GF-AAS. Error bars are S.D.

[12] abbreviates: Homo sapiens, Table 1, mean ± S.D.
Where [13] appears, read: Table 2, cisplatin-sensitive parental cells.

Like-named read-outs stand apart in the source and are kept apart here. Bounds are passed on as bounds.

For `O=C(CCCC[C@@H]1SC[C@@H]2NC(=O)N[C@@H]21)NN=C1c2cccnc2-c2ncccc21` [A, Biotin-Dafone], the IC50 was > 50 µM in data set [1] (Homo sapiens, PSN1, mean ± S.D.); > 50 µM in data set [2] (Homo sapiens); > 50 µM in data set [3] (Homo sapiens, HCT-15, mean ± S.D.); > 50 µM in data set [5] (Homo sapiens, MDA-MB-231, mean ± S.D.); > 50 µM in [6] (setting [12]); > 50 µM in [7] (Homo sapiens, A-431, mean ± S.D.). Besides, the “cytotoxic activity of ligands (in words)” value in [4] was “did not show activity comparable to the complexes”.
As for `O=C(CCCC[C@@H]1SC[C@@H]2NC(=O)N[C@@H]21)N/N=C1\C(=O)c2cccnc2-c2ncccc21` [B, Biotin-Phen], the IC50 in [2] (Homo sapiens) turned out to be 28.1 ± 2.77 µM; in data set [6] (setting [12]) it was 21.5 ± 0.72 µM. For the same compound, the “cytotoxic activity of ligands (in words)” value in [4] was “did not show activity comparable to the complexes”.
On to `N.N.[Cl][Pt][Cl]` [Cisplatin, cisplatin, reference compound], for which the IC50 in data set [8] is 52.6 ± 3.8 µM; in data set [1] (mean ± S.D.) it was 12.1 ± 2.9 µM; in data set [9], 24.1 ± 3 µM; in [2], 2.1 ± 0.9 µM; in data set [3] (mean ± S.D.), 13.9 ± 1.7 µM; in data set [5] (mean ± S.D.), 30.5 ± 2.6 µM. Also, the 50% inhibitory concentration (IC50) stood at 24.1 ± 3 µM with noncancerous CHO cells; 2.2 ± 1.4 µM in [6] (Table 1, mean ± S.D.); 2.2 ± 1.4 µM in data set [6] (setting [13]); 2.1 ± 0.9 µM in data set [7] (mean ± S.D.). The “R.F. (resistance factor)” value in data set [9] is on record as 11.1.
Take `O=C(CCCC[C@@H]1SC[C@@H]2NC(=O)N[C@@H]21)NN=C1c2ccc[n+]3c2-c2c1ccc[n+]2[Cu-2]3([Cl])[Cl]` [Complex 1, [Cu(dafone-biotin)Cl2]]: the “fluorescence quenching (in words)” value with DNA [10] was “very small quenching”. In addition, the IC50 turned out to be 0.6 ± 0.2 µM in data set [1] (mean ± S.D.); 2 ± 0.8 µM in data set [9]; 5.9 ± 0.5 µM in data set [2]; 0.4 ± 0.1 µM in [3] (mean ± S.D.); 3.4 µM in [4] (2D assays, average over the cancer cell lines of Table 1); 2.1 ± 0.4 µM in data set [5] (mean ± S.D.). Also, the IC50 stood at 13.1 ± 0.9 µM in the data set with noncancerous CHO cells; 4.5 ± 0.6 µM in [6] (Table 1, mean ± S.D.); 4.5 ± 0.6 µM in data set [6] (setting [13]); 7.2 ± 0.6 µM in data set [7] (mean ± S.D.). In addition, the “R.F. (resistance factor)” value in data set [9] is given as 0.4. In addition, the “S.I. (selectivity index)” value in the data set on noncancerous CHO cells amounted to 3.9.
As for `c1cc2c3nccnc3c3ccc[n+]4c3c2[n+](c1)[Cu-2]41[n+]2cccc3c4nccnc4c4ccc[n+]1c4c32` [[Cu(DPQ)2]^2+], the “binding constant (literature)” value in the data set with DNA [11] is recorded as 3.04 × 10^7 M(bp^−1).
Turning to `[Cu+2].c1cnc2c(c1)ccc1cccnc12.c1cnc2c(c1)ccc1cccnc12` [[Cu(phen)2]^2+, copper bis-phenanthroline [Cu(phen)2]^2+], in the data set with DNA [11], the “binding constant (literature)” value is 2.60 × 10^7 M(bp^−1).
For the compound “[Cu(phen)(dafone-biotin)](NO3)2 [Complex 3]”, the “fluorescence quenching (in words)” value with DNA [10] is given as “highest quenching values”. For the same compound, in the data set on DNA [10], the relative fluorescence decrease result was “greater than 50%”. Besides, in the data set with DNA [10] (10 mM phosphate buffer pH 7.4, from 50% fluorescence decrease), the binding constant was 2.53 × 10^7 M(bp^−1). Also, the IC50 amounted to 0.7 ± 0.2 µM in data set [1] (mean ± S.D.); 2.5 ± 0.2 µM in [9]; 3 ± 0.3 µM in [2]; 1.8 ± 0.2 µM in [3] (mean ± S.D.); 1.4 ± 0.4 µM in data set [5] (mean ± S.D.); 2.1 ± 0.8 µM in the data set on noncancerous CHO cells. Further, the concentration for half-maximal inhibition (IC50) in [6] (Table 1, mean ± S.D.) was determined as 3.3 ± 0.1 µM; in data set [6] (setting [13]) it was 3.3 ± 0.1 µM; in data set [7] (mean ± S.D.), 0.9 ± 0.2 µM. Besides, the “R.F. (resistance factor)” value in data set [9] is reported as 0.7. In the data set on noncancerous CHO cells, the “S.I. (selectivity index)” value was determined as 1.1. The “Cu intracellular content (uptake)” value with MDA-MB-231 cells is on record as “most internalised into cancer cells”.
